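48-hour exposure; five concentrations; linearly interpolated endpoints. Here, GI50 denotes the concentration required for 50% inhibition of growth.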 The source made the active and inactive calls. Rule as the data show it: active = GI50 up to about 1.1 µM and inactive = higher.
Columns and labels:
Experiment in all cases: NCI-60 cell line screen, 48 h
[1] = test system: U-251
[2] = test system: UACC-257
[3] = test system: SF-539
[4] = test system: HL-60
[5] = test system: SNB-19
[6] = test system: KM12
[7] = test system: RPMI-8226
[8] = test system: SK-MEL-2
[9] = test system: A498
[10] = test system: HCC 2998
[11] = test system: EKVX
[12] = test system: HCT-15
[13] = test system: UO-31
[14] = test system: SNB-75
[15] = test system: ACHN
[16] = test system: TK-10
[17] = test system: LOX IMVI
[18] = test system: CCRF-CEM
[19] = test system: SF-268
[20] = test system: RXF 393
[21] = test system: HT-29
[22] = test system: PC-3
[23] = test system: OVCAR-8
[24] = test system: MDA-MB-435
[25] = test system: HOP-92
[26] = test system: MOLT-4
[27] = test system: 786-0
[28] = test system: NCI-H522
[29] = test system: NCI-H23
[30] = test system: COLO 205
[31] = test system: Malme-3M
[32] = test system: NCI-H460
[33] = test system: SK-OV-3
[34] = test system: T47D
[35] = test system: OVCAR-3
[36] = test system: M14
[37] = test system: NCI/ADR-RES
[38] = test system: CAKI-1
[39] = test system: SW-620
[40] = test system: BT-549
[41] = test system: HOP-62
[42] = test system: SN12C
[43] = test system: MDA-N
[44] = test system: A549
[45] = test system: SK-MEL-5
[46] = test system: IGROV-1
[47] = test system: SK-MEL-28
[48] = test system: SF-295
[49] = test system: HCT-116
[50] = test system: MCF7
[51] = test system: UACC-62
[52] = test system: MDA-MB-231
[53] = test system: OVCAR-5
[54] = test system: DU-145
[55] = test system: Hs-578T
[56] = test system: K562
[57] = test system: SR
[58] = test system: OVCAR-4
[59] = test system: NCI-H226

O=C(COC(=O)c1ccccc1)c1ccc(Br)cc1
GI50 [1]: 11 µM (inactive)
GI50 [2]: 15.5 µM (inactive)
GI50 [3]: 15.1 µM (inactive)
GI50 [4]: 6.64 µM (inactive)
GI50 [5]: 16.9 µM (inactive)
GI50 [6]: 15.7 µM (inactive)
GI50 [7]: 3.39 µM (inactive)
GI50 [8]: 12.2 µM (inactive)
GI50 [9]: 15.8 µM (inactive)
GI50 [10]: 13.3 µM (inactive)
GI50 [11]: 14.7 µM (inactive)
GI50 [12]: 3.35 µM
GI50 [13]: 1.89 µM (inactive)
GI50 [14]: 16.4 µM (inactive)
GI50 [15]: 19.9 µM (inactive)
GI50 [16]: 2.58 µM (inactive)
GI50 [17]: 3.06 µM (inactive)
GI50 [18]: 4.04 µM (inactive)
GI50 [19]: 19.6 µM (inactive)
GI50 [20]: 2.75 µM (inactive)
GI50 [21]: 15.6 µM (inactive)
GI50 [22]: 16.3 µM (inactive)
GI50 [23]: 12.5 µM (inactive)
GI50 [24]: 6.78 µM (inactive)
GI50 [25]: 14.6 µM (inactive)
GI50 [26]: 3.29 µM (inactive)
GI50 [27]: 2.41 µM (inactive)
GI50 [28]: 1.63 µM (inactive)
GI50 [29]: 18.3 µM (inactive)
GI50 [30]: 13.6 µM (inactive)
GI50 [31]: 12.2 µM (inactive)
GI50 [32]: 18.5 µM (inactive)
GI50 [33]: 19.1 µM (inactive)
GI50 [34]: 9.06 µM (inactive)
GI50 [35]: 12.9 µM (inactive)
GI50 [36]: 14.5 µM (inactive)
GI50 [37]: 21 µM (inactive)
GI50 [38]: 1.47 µM (inactive)
GI50 [39]: 6 µM (inactive)
GI50 [40]: 6.14 µM (inactive)
GI50 [41]: 18.5 µM (inactive)
GI50 [42]: 10.4 µM (inactive)
GI50 [43]: 4.71 µM (inactive)
GI50 [44]: 17.2 µM (inactive)
GI50 [45]: 14.5 µM (inactive)
GI50 [46]: 1 µM (active)
GI50 [47]: 16.9 µM (inactive)
GI50 [48]: 15.8 µM (inactive)
GI50 [49]: 8.95 µM (inactive)
GI50 [50]: 5.53 µM (inactive)
GI50 [51]: 13 µM (inactive)
GI50 [52]: 14.3 µM (inactive)
GI50 [53]: 10.7 µM (inactive)
GI50 [54]: 19.5 µM (inactive)
GI50 [55]: 14.3 µM (inactive)
GI50 [56]: 4.4 µM (inactive)
GI50 [57]: 2.15 µM (inactive)

CC12CCC3c4ccc(O)cc4CCC3C1C/C(=N\O)C2O (configuration not stated)
GI50 [1]: > 100 µM (inactive)
GI50 [2]: > 100 µM (inactive)
GI50 [3]: 85.1 µM (inactive)
GI50 [4]: 92.9 µM (inactive)
GI50 [5]: > 100 µM (inactive)
GI50 [6]: 99.5 µM (inactive)
GI50 [7]: 85.1 µM (inactive)
GI50 [8]: > 100 µM (inactive)
GI50 [9]: > 100 µM (inactive)
GI50 [11]: 26.8 µM (inactive)
GI50 [12]: > 100 µM
GI50 [13]: > 100 µM (inactive)
GI50 [14]: 36.8 µM (inactive)
GI50 [15]: > 100 µM (inactive)
GI50 [16]: 45.4 µM (inactive)
GI50 [17]: > 100 µM (inactive)
GI50 [18]: 42.7 µM (inactive)
GI50 [19]: > 100 µM (inactive)
GI50 [20]: > 100 µM (inactive)
GI50 [21]: 77.6 µM (inactive)
GI50 [22]: > 100 µM (inactive)
GI50 [23]: > 100 µM (inactive)
GI50 [58]: > 100 µM (inactive)
GI50 [24]: > 100 µM (inactive)
GI50 [59]: > 100 µM (inactive)
GI50 [25]: > 100 µM (inactive)
GI50 [26]: > 100 µM (inactive)
GI50 [27]: > 100 µM (inactive)
GI50 [28]: > 100 µM (inactive)
GI50 [29]: > 100 µM (inactive)
GI50 [30]: > 100 µM (inactive)
GI50 [31]: > 100 µM (inactive)
GI50 [32]: > 100 µM (inactive)
GI50 [33]: > 100 µM (inactive)
GI50 [34]: > 100 µM (inactive)
GI50 [35]: > 100 µM (inactive)
GI50 [36]: > 100 µM (inactive)
GI50 [37]: > 100 µM (inactive)
GI50 [38]: > 100 µM (inactive)
GI50 [39]: > 100 µM (inactive)
GI50 [40]: > 100 µM (inactive)
GI50 [41]: > 100 µM (inactive)
GI50 [42]: > 100 µM (inactive)
GI50 [43]: > 100 µM (inactive)
GI50 [44]: > 100 µM (inactive)
GI50 [45]: > 100 µM (inactive)
GI50 [46]: > 100 µM (inactive)
GI50 [47]: > 100 µM (inactive)
GI50 [48]: > 100 µM (inactive)
GI50 [49]: > 100 µM (inactive)
GI50 [50]: > 100 µM (inactive)
GI50 [51]: > 100 µM (inactive)
GI50 [52]: > 100 µM (inactive)
GI50 [53]: > 100 µM (inactive)
GI50 [54]: > 100 µM (inactive)
GI50 [55]: 99.1 µM (inactive)
GI50 [56]: > 100 µM (inactive)
GI50 [57]: > 100 µM (inactive)

COc1ccc(C2NC(=S)Nc3c2c(=O)oc2c3ccc3ccccc32)cc1 (configuration not stated)
GI50 [1]: 40.6 µM (inactive)
GI50 [2]: > 100 µM (inactive)
GI50 [4]: 92.3 µM (inactive)
GI50 [5]: 35.7 µM (inactive)
GI50 [6]: 58.3 µM (inactive)
GI50 [7]: 47.6 µM (inactive)
GI50 [8]: 44.1 µM (inactive)
GI50 [9]: 38.9 µM (inactive)
GI50 [11]: 27.4 µM (inactive)
GI50 [12]: 53.7 µM
GI50 [13]: 77.1 µM (inactive)
GI50 [14]: 33.7 µM (inactive)
GI50 [15]: 67.6 µM (inactive)
GI50 [16]: 99.3 µM (inactive)
GI50 [17]: > 100 µM (inactive)
GI50 [18]: 46 µM (inactive)
GI50 [19]: > 100 µM (inactive)
GI50 [20]: > 100 µM (inactive)
GI50 [21]: > 100 µM (inactive)
GI50 [22]: 54.7 µM (inactive)
GI50 [23]: 92.3 µM (inactive)
GI50 [58]: 69.2 µM (inactive)
GI50 [24]: 86.3 µM (inactive)
GI50 [59]: 32.2 µM (inactive)
GI50 [25]: 41.8 µM (inactive)
GI50 [26]: 73.5 µM (inactive)
GI50 [27]: 80.7 µM (inactive)
GI50 [28]: > 100 µM (inactive)
GI50 [29]: 67.3 µM (inactive)
GI50 [30]: > 100 µM (inactive)
GI50 [31]: > 100 µM (inactive)
GI50 [32]: 96.6 µM (inactive)
GI50 [33]: > 100 µM (inactive)
GI50 [34]: 50.6 µM (inactive)
GI50 [35]: > 100 µM (inactive)
GI50 [36]: 45.6 µM (inactive)
GI50 [37]: 81.5 µM (inactive)
GI50 [38]: 58.3 µM (inactive)
GI50 [39]: > 100 µM (inactive)
GI50 [40]: 45.7 µM (inactive)
GI50 [41]: 87.9 µM (inactive)
GI50 [42]: 88.5 µM (inactive)
GI50 [43]: 76.9 µM (inactive)
GI50 [44]: 52.1 µM (inactive)
GI50 [45]: > 100 µM (inactive)
GI50 [46]: > 100 µM (inactive)
GI50 [47]: 52.5 µM (inactive)
GI50 [48]: 59.3 µM (inactive)
GI50 [49]: 78.2 µM (inactive)
GI50 [50]: > 100 µM (inactive)
GI50 [51]: 45.7 µM (inactive)
GI50 [52]: 57.8 µM (inactive)
GI50 [53]: > 100 µM (inactive)
GI50 [54]: > 100 µM (inactive)
GI50 [55]: 75.7 µM (inactive)
GI50 [56]: 56.9 µM (inactive)
GI50 [57]: 48.4 µM (inactive)

From ChEMBL document CHEMBL1201862, “PubChem BioAssay data set” (2004)
